# Measurements: paper PMC10447463, “Data-mining unveils structure–property–activity correlation of viral infectivity enhancing self-assembling peptides” (Nature Communications, 2023)
# Like-named read-outs stand apart in the source and are kept apart here.
# Legend:
# [1] = test system: HIV-1 infection of TZM-bl cells; experiment: HIV-1 infectivity enhancement assay, β-galactosidase luminescence; type: cell-based; conditions: for Rel-EFC / Log10 Infection Rel EFC: 1.3 µM peptide; for Rel-EFC: infection relative to EF-C (QCKIKQIINMWQ = 1); for Log10 Infection Rel EFC: log10 of infection relative to EF-C; for Log Infectivity: Log10 infection relative to EF-C, TZM-bl cells, asymmetric std dev errors; for Log10 Infection Rel EF-C: HIV-1 infection of TZM-bl cells; for Log10 of Rel to EFC (Feb2021): Log10 of infection relative to EF-C, all peptides of FigS16; for Abs. Inf.: absolute infection signal, HIV-1 on TZM-bl cells, β-galactosidase luminescence; for Log10 Inf. rel. to EF-C: log10 of HIV-1 infection of TZM-bl cells relative to EF-C (EF-C = 0)
# [2] = Turbidity, derived count rate of scattered light; type: physicochemical; conditions: for Count Rate / kcps: derived count rate of scattered light at 633 nm, 173°, from zeta-potential measurement, 0.1 mg/mL in 1 mM KCl after 1 d at 1 mg/mL in PBS, turbidity / microscopic aggregation, mean of triplicate
# How it was run: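 Samples: 1 mg/mL in PBS pH 7.4 (from DMSO), 1 d at RT, then diluted in 1 mM KCl immediately before measurement. Triplicates, two independent runs averaged.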
# [3] = type: physicochemical; set-up: key to Fibril / Fibril Formation / TEM 2cat / Fibril: 1 = fibrils present; 0 non-fibrillar structures; conditions: for Fibril / Fibril Formation: 1 mg/mL, uranyl acetate stain, qualitative
# [4] = Fig. S7 panel A (plotted against β-sheet content)
# [5] = Fig. S7 panel B (plotted against CR), rounded to two decimals
# [6] = Log10 of infection rate relative to EF-C, Figure 3A source data
# [7] = infection rate relative to EF-C, log10, data of Figure 2D
# [8] = infection rate relative to EF-C, log10, source data of Figure 2C
# [9] = Log10 of derived count rate of scattered light (turbidity)
# [10] = turbidity, Log10 of derived count rate of scattered light, Figure 3A source data
# [11] = turbidity, log10 of derived count rate of scattered light
# [12] = TEM, 1 = fibrils present, 0 = non-fibrillar
# [13] = TEM, 1 = fibrils present, 0 = non-fibrillar structures
# [14] = category: fibrils present or non-fibrillar
# [15] = log10 of derived count rate of scattered light (turbidity)
# [16] = FigS12 panel A, fibril category by TEM
substance,measurement,setting,value
QCKFKFQFNM,Rel-EFC,[1],"0,51"
same,Log10 Infection Rel EFC,[1],"-0,29"
same,Log Infectivity,[1]; [4],-0.2906
same,Log Infectivity,[1]; [5],-0.29
same,Log10 Infection Rel EF-C,[1]; [6],-0.29
same,Log10 Infection Rel EF-C,[1]; [7],-0.2906
same,Log10 Infection Rel EF-C,[1]; [8],-0.2906
same,Log10 of Rel to EFC (Feb2021),[1],-0.29
same,Abs. Inf.,[1],16353.33333
same,Log10 Inf. rel. to EF-C,[1],-0.2906
same,Log10 Count Rate,[2]; [9],3.565
same,Count Rate / kcps,[2],3670 kcps
same,Log10 Count Rate,[2]; [10],3.565
same,Log10 Count Rate,[2]; [11],3.565
same,TEM 2cat,[3]; Fig S10 panel D,1
same,Fibril,[3]; Fig S10 panel E,1
same,Fibril / Fibril Formation,[3]; TEM,1
same,Fibril,[3]; [12],1
same,Fibril,[3]; [13],1
same,TEM 2cat,[3]; [14],1
CKWKWQW,Rel-EFC,[1],"0,25"
same,Log10 Infection Rel EFC,[1],"-0,6"
same,Log Infectivity,[1]; [4],-0.5951
same,Log10 Infection Rel EF-C,[1]; [6],-0.6
same,Log10 Infection Rel EF-C,[1]; [7],-0.5951
same,Log10 Infection Rel EF-C,[1]; [8],-0.5951
same,Log10 of Rel to EFC (Feb2021),[1],-0.6
same,Log10 Count Rate,[2]; [9],3.876
same,Count Rate / kcps,[2],7511 kcps
same,Log10 Count Rate,[2]; [15],3.876
same,Log10 Count Rate,[2]; logarithm of count rate in kcps,3.876
same,Log10 Count Rate,[2]; [10],3.876
same,TEM 2cat,[3]; Fig S10 panel D,1
same,Fibril / Fibril Formation,[3]; TEM,1
same,Fibril,[3]; [12],1
same,Fibril,[3]; [13],1
same,TEM 2cat,[3]; [14],1
SISISRRI,Rel-EFC,[1],"0,03"
same,Log10 Infection Rel EFC,[1],"-1,55"
same,Log Infectivity,[1]; [4],-1.548
same,Log Infectivity,[1]; [5],-1.55
same,Log10 Infection Rel EF-C,[1]; [6],-1.55
same,Log10 Infection Rel EF-C,[1]; [7],-1.548
same,Log10 Infection Rel EF-C,[1]; [8],-1.548
same,Abs. Inf.,[1],313.3
same,Log10 Inf. rel. to EF-C,[1],-1.548
same,Log10 Count Rate,[2]; [9],1.403
same,Count Rate / kcps,[2],25 kcps
same,Log10 Count Rate,[2]; [10],1.403
same,Log10 Count Rate,[2]; [11],1.403
same,TEM 2cat,[3]; Fig S10 panel D,0
same,Fibril,[3]; Fig S10 panel E,0
same,TEM 2cat,[3]; [16],0
same,Fibril,"[3]; FigS12 panel B, TEM",0
same,Fibril / Fibril Formation,[3]; TEM,0
same,Fibril,[3]; [12],0
same,Fibril,[3]; [13],0
EFEFQF,Rel-EFC,[1],0
same,Log10 Infection Rel EFC,[1],"-2,49"
same,Log Infectivity,[1]; [4],-2.485
same,Log10 Infection Rel EF-C,[1]; [6],-2.49
same,Log10 Infection Rel EF-C,[1]; [7],-2.485
same,Log10 Infection Rel EF-C,[1]; [8],-2.485
same,Log10 Count Rate,[2]; [9],2.608
same,Count Rate / kcps,[2],405 kcps
same,Log10 Count Rate,[2]; [15],2.608
same,Log10 Count Rate,[2]; [10],2.608
same,TEM 2cat,[3]; Fig S10 panel D,0
same,TEM 2cat,[3]; [16],0
same,Fibril,"[3]; FigS12 panel B, TEM",0
same,Fibril / Fibril Formation,[3]; TEM,0
same,Fibril,[3]; [12],0
same,Fibril,[3]; [13],0
KIKIQINAWQ,Rel-EFC,[1],"0,54"
same,Log10 Infection Rel EFC,[1],"-0,27"
same,Log Infectivity,[1]; [4],-0.2703
same,Log10 Infection Rel EF-C,[1]; [6],-0.27
same,Log10 Infection Rel EF-C,[1]; [7],-0.2703
same,Log10 Infection Rel EF-C,[1]; [8],-0.2703
same,Log10 of Rel to EFC (Feb2021),[1],-0.27
same,Log10 Inf. rel. to EF-C,[1],-0.2703
same,Log10 Count Rate,[2]; [9],3.174
same,Count Rate / kcps,[2],1494 kcps
same,Log10 Count Rate,[2]; [10],3.174
same,Log10 Count Rate,[2]; [11],3.174
same,TEM 2cat,[3]; Fig S10 panel D,1
same,Fibril / Fibril Formation,[3]; TEM,1
same,Fibril,[3]; [12],1
same,Fibril,[3]; [13],1
same,TEM 2cat,[3]; [14],1
NMWQKIKQII,Rel-EFC,[1],"0,03"
same,Log10 Infection Rel EFC,[1],"-1,6"
same,Log Infectivity,[1]; [4],-1.5971
same,Log10 Infection Rel EF-C,[1]; [6],-1.6
same,Log10 Infection Rel EF-C,[1]; [7],-1.5971
same,Log10 Infection Rel EF-C,[1]; [8],-1.5971
same,Abs. Inf.,[1],283.3
same,Log10 Inf. rel. to EF-C,[1],-1.5971
same,Log10 Count Rate,[2]; [9],2.992
same,Count Rate / kcps,[2],982 kcps
same,Log10 Count Rate,[2]; [10],2.992
same,Log10 Count Rate,[2]; [11],2.992
same,TEM 2cat,[3]; Fig S10 panel D,0
same,TEM 2cat,[3]; [16],0
same,Fibril,"[3]; FigS12 panel B, TEM",0
same,Fibril / Fibril Formation,[3]; TEM,0
same,Fibril,[3]; [12],0
same,Fibril,[3]; [13],0
QCKFKFQFNMWQ,Rel-EFC,[1],"0,62"
same,Log10 Infection Rel EFC,[1],"-0,21"
same,Log Infectivity,[1]; [4],-0.2086
same,Log Infectivity,[1]; [5],-0.21
same,Log10 Infection Rel EF-C,[1]; [6],-0.21
same,Log10 Infection Rel EF-C,[1]; [7],-0.2086
same,Log10 Infection Rel EF-C,[1]; [8],-0.2086
same,Log10 of Rel to EFC (Feb2021),[1],-0.21
same,Abs. Inf.,[1],19753.33333
same,Log10 Inf. rel. to EF-C,[1],-0.2086
same,Log10 Count Rate,[2]; [9],3.082
same,Count Rate / kcps,[2],1208 kcps
same,Log10 Count Rate,[2]; [10],3.082
same,Log10 Count Rate,[2]; [11],3.082
same,TEM 2cat,[3]; Fig S10 panel D,1
same,Fibril,[3]; Fig S10 panel E,1
same,Fibril / Fibril Formation,[3]; TEM,1
same,Fibril,[3]; [12],1
same,Fibril,[3]; [13],1
same,TEM 2cat,[3]; [14],1
KFKFQF,Rel-EFC,[1],"0,06"
same,Log10 Infection Rel EFC,[1],"-1,21"
same,Log Infectivity,[1]; [4],-1.213
same,Log Infectivity,[1]; [5],-1.21
same,Log10 Infection Rel EF-C,[1]; [6],-1.21
same,Log10 Infection Rel EF-C,[1]; [7],-1.213
same,Log10 Infection Rel EF-C,[1]; [8],-1.213
same,Log10 Inf. rel. to EF-C,[1],-1.213
same,Log10 Count Rate,[2]; [9],2.263
same,Count Rate / kcps,[2],183 kcps
same,Log10 Count Rate,[2]; [10],2.263
same,Log10 Count Rate,[2]; [11],2.263
same,TEM 2cat,[3]; Fig S10 panel D,0
same,Fibril,[3]; Fig S10 panel E,0
same,TEM 2cat,[3]; [16],0
same,Fibril,"[3]; FigS12 panel B, TEM",0
same,Fibril / Fibril Formation,[3]; TEM,0
same,Fibril,[3]; [12],0
same,Fibril,[3]; [13],0
KIKIQI,Rel-EFC,[1],"0,07"
same,Log10 Infection Rel EFC,[1],"-1,17"
same,Log Infectivity,[1]; [4],-1.169
same,Log Infectivity,[1]; [5],-1.17
same,Log10 Infection Rel EF-C,[1]; [6],-1.17
same,Log10 Infection Rel EF-C,[1]; [7],-1.169
same,Log10 Infection Rel EF-C,[1]; [8],-1.169
same,Log10 Inf. rel. to EF-C,[1],-1.169
same,Log10 Count Rate,[2]; [9],2.035
same,Count Rate / kcps,[2],108 kcps
same,Log10 Count Rate,[2]; [10],2.035
same,Log10 Count Rate,[2]; [11],2.035
same,TEM 2cat,[3]; Fig S10 panel D,0
same,Fibril,[3]; Fig S10 panel E,0
same,TEM 2cat,[3]; [16],0
same,Fibril,"[3]; FigS12 panel B, TEM",0
same,Fibril / Fibril Formation,[3]; TEM,0
same,Fibril,[3]; [12],0
same,Fibril,[3]; [13],0
KAKQAANMWQ,Rel-EFC,[1],"0,03"
same,Log10 Infection Rel EFC,[1],"-1,51"
same,Log Infectivity,[1]; [4],-1.514
same,Log10 Infection Rel EF-C,[1]; [6],-1.51
same,Log10 Infection Rel EF-C,[1]; [7],-1.514
same,Log10 Infection Rel EF-C,[1]; [8],-1.514
same,Abs. Inf.,[1],343.3
same,Log10 Inf. rel. to EF-C,[1],-1.514
same,Log10 Count Rate,[2]; [9],2.839
same,Count Rate / kcps,[2],690 kcps
same,Log10 Count Rate,[2]; [10],2.839
same,Log10 Count Rate,[2]; [11],2.839
same,TEM 2cat,[3]; Fig S10 panel D,0
same,TEM 2cat,[3]; [16],0
same,Fibril,"[3]; FigS12 panel B, TEM",0
same,Fibril / Fibril Formation,[3]; TEM,0
same,Fibril,[3]; [12],0
same,Fibril,[3]; [13],0
